One assay has as its system BV-2 microglial cells. The assay is described as follows: Cell-based screen for inhibition of LPS-stimulated NO release (Griess assay). Particulars: LPS-stimulated BV-2 cells, 24 hr, nitrite in conditioned media. Also on record: species or system murine. How it is done:
FIG. 1. Cell-based screen for inhibition of LPS-stimulated NO release. […] Inhibition is expressed as percent control, where the control is the NO accumulation from cells stimulated with LPS alone.
The rationale for using BV-2 cells in high throughput screening was the paucity of well-characterized human microglial cell lines, and the relevant activation responses and signaling pathways reflect those seen in human and rodent primary microglial cultures. Compounds were tested for their effects on NO accumulation in conditioned media of LPS-stimulated BV-2 cells by measurement of nitrite production by the Griess assay as a read-out for iNOS activity, as described previously. Stock solutions of compounds were prepared in dimethylsulfoxide (DMSO) or in water. When stock solutions were prepared in DMSO, control wells contained the same final concentration of DMSO as the compound-containing wells. […] Solutions of compounds for cell treatments were diluted to a 10× final concentration by dilution of stock solutions in αMEM media. The commercially available drugs tested were: compound 5 (KN93 from Alexis); compound 6 (pyrrolidinedithiocarbamate or PDTC from Sigma), compound 7 (SB203580 from Alexis Corporation), compound 8 (PD98059 from Alexis Corporation), and compound 9 (UO126 from Cell Signaling). […] Respectively, Western blots of cell lysates were done with the following antibodies: monoclonal anti-iNOS (1:1000 dilution, Transduction Labs); polyclonal anti-rat IL-1β (1:1000 dilution, R&D Systems, Inc.); monoclonal anti-glial fibrillary acidic protein (GFAP) (1:[…] dilution, Sigma); polyclonal anti-rat alioE (1:15,000 dilution) prepared as described; polyclonal anti-COX-2 (1:500 dilution) and monoclonal anti-phosphoATF2 (1:1000 dilution) from Santa Cruz Biotechnology, polyclonal anti-phosphoCREB (1:1000 dilution), and polyclonal anti-phosphop38 MAPK (1:1000 dilution). Reconstituted enzyme assays were done as described s. The sources of protein kinases were: bovine heart PKA from Promega, rat brain PKC from Calbiochem, rat CaMKII from New England Biolabs, chicken gizzard MLCK prepared as described, and a p38 MAP kinase kit containing recombinant Xenopus p38-MAPK and its human substrate from Upstate Biotechnology. The catalytic domains of these protein kinases retain a high level of amino acid sequence identity across mammalian species, consistent with the lack of documented major differences across species for the in vitro catalytic activity of a given kinase.
FIG. 4. Cell-based screen for functional effects of synthetic compounds on LPS-stimulated NO release from BV-2 cells. BV-2 cells were incubated for 24 hr with LPS (500 ng/ml) in the presence of increasing concentrations of: A) MW01-070C; B) MW01-026Z; C) MW01-118Z; D) MW01-119Z; E) MW01-051Z; F) MW01-160Z; G) MW01-196A; H) MW01-024Z; I) SB203580; J) PDTC; K) U0126; L) PD98059. The nitrite levels in conditioned media were determined. Inhibition is expressed as percentage of control values, where the control is the nitrite level in cells stimulated with LPS alone.
Compounds were tested for their effects on NO production by LPS-stimulated BV-2 cells as previously described [Mirzoeva, S., Koppal, T., Petrova, T. V., Lukas, T. J., Watterson, D. M., and Van Eldik, L. J. (1999) Brain Res. 844, 126-134]. The levels of nitrite, a stable NO metabolite, in conditioned media were determined by the Griess assay as previously described [Hu, J., Castets, F., Guevara, J. L., and Van Eldik, L. J. (1996) J. Biol. Chem. 271, 2543-2547]. Stock solutions of compounds were prepared in DMSO or in water. When stock solutions were prepared in DMSO, control wells contained the same final concentration of DMSO as the compound-containing wells. Solutions of compounds for cell treatments were diluted to a 10× final concentration by dilution of stock solutions of drugs in αMEM media.
(Griess reagent forms a coloured azo dye with nitrite.)

Another assay relates to rat astrocytes. The assay is described as follows: Western blot of glial activation responses in rat astrocyte cultures. Particulars: LPS-stimulated rat astrocytes, 24 hr, Western blot. It counts as cell-based. How it is done: FIG. 2. Selective effects of compound 1 (MW01-070C) on glial activation responses and gene-regulating protein kinase pathways. BV-2 cells and rat astrocytes were treated with control buffer (C) or stimulated with LPS or Aβ1-42 peptide in the presence or absence of compound 1, and cell lysates were analyzed by Western blots. (A) Astrocytes treated with LPS and compound 1 show concentration-dependent inhibition of iNOS and IL-1β production but not GFAP. (B) Astrocytes treated with A β1-42 and compound 1 (10 μM) show inhibition of iNOS and IL-1β but not apoE and COX-2. (C) BV-2 cells treated with LPS and compound 1 (10 μM) show inhibition of phosphorylated (p-) CREB but not p-p38 and p-ATF2, as assayed with antibodies that are specific for the phosphorylated forms of the proteins. Data are expressed as percent control (mean±SD; n=3 determinations).
The rationale for using BV-2 cells in high throughput screening was the paucity of well-characterized human microglial cell lines, and the relevant activation responses and signaling pathways reflect those seen in human and rodent primary microglial cultures. Compounds were tested for their effects on NO accumulation in conditioned media of LPS-stimulated BV-2 cells by measurement of nitrite production by the Griess assay as a read-out for iNOS activity, as described previously. Stock solutions of compounds were prepared in dimethylsulfoxide (DMSO) or in water. When stock solutions were prepared in DMSO, control wells contained the same final concentration of DMSO as the compound-containing wells. […] Solutions of compounds for cell treatments were diluted to a 10× final concentration by dilution of stock solutions in αMEM media. The commercially available drugs tested were: compound 5 (KN93 from Alexis); compound 6 (pyrrolidinedithiocarbamate or PDTC from Sigma), compound 7 (SB203580 from Alexis Corporation), compound 8 (PD98059 from Alexis Corporation), and compound 9 (UO126 from Cell Signaling). SB203580, U0126 and PD98059, PDTC, and KN93 are used as pathway-selective inhibitors of p38 MAPK, MEK1/2, NFκB, and CaMKII signaling pathways. Respectively, Western blots of cell lysates were done with the following antibodies: monoclonal anti-iNOS (1:1000 dilution, Transduction Labs); polyclonal anti-rat IL-1β (1:1000 dilution, R&D Systems, Inc.); monoclonal anti-glial fibrillary acidic protein (GFAP) (1:[…] dilution, Sigma); polyclonal anti-rat alioE (1:15,000 dilution) prepared as described; polyclonal anti-COX-2 (1:500 dilution) and monoclonal anti-phosphoATF2 (1:1000 dilution) from Santa Cruz Biotechnology, polyclonal anti-phosphoCREB (1:1000 dilution), and polyclonal anti-phosphop38 MAPK (1:1000 dilution). Reconstituted enzyme assays were done as described s. The sources of protein kinases were: bovine heart PKA from Promega, rat brain PKC from Calbiochem, rat CaMKII from New England Biolabs, chicken gizzard MLCK prepared as described, and a p38 MAP kinase kit containing recombinant Xenopus p38-MAPK and its human substrate from Upstate Biotechnology. The catalytic domains of these protein kinases retain a high level of amino acid sequence identity across mammalian species, consistent with the lack of documented major differences across species for the in vitro catalytic activity of a given kinase.
FIG. 5. Effects of two compounds on LPS-stimulated INOS and IL-1β production in rat astrocyte cultures. Astrocyte cultures were incubated for 24 hr with control buffer (C), LPS (100 ng/ml) alone, or LPS in the presence of increasing concentrations (0.1, 0.3, 1, 3, 10 μM) of MW01-070C (panel A) or MW01-196A (panel B). The levels of iNOS, proIL-1β, and GFAP were determined by Western blot of cell lysates.
FIG. 6. Effects of MW01-070C on astrocytes treated with various activating stimuli, and analysis of multiple activation responses. Astrocyte cultures were stimulated for 12 hr with Aβ (10 μM), S100B (0.5 μM), or LPS (100 ng/ml) in the absence (−) or presence (+) of MW01-070C (10 μM). […]
Background: Immunoblotting shows a protein as a band on a membrane.

Assay [1] addresses death associated protein kinase (DAPK) (Homo sapiens, UniProt P53355). The assay is described as follows: Enzyme assay, DAPK. Type of assay: biochemical. The following applies: Table 6; read-out: Inhibition DAPK. How it is done:
Therefore, compound MW01-026Z was selected as a starting point for variations on component A (Table 6). […] However, none of the A variations appeared to improve the activity and selectivity profile of CompoundMW01-026Z. (For purposes of illustration, only, component G was maintained throughout as an acyl moiety, while component R2 was varied as shown. All such compositions are available using the synthetic techniques described herein. Enzyme assays were conducted per procedures described elsewhere herein.) A more comprehensive structure activity relationship is summarized in Table 7, below.
With reference to the compositions of Table 3 and the enzyme assay techniques described elsewhere herein, Table 7 provides structural activity relationships observed, in accordance with this invention.

The target in a further assay is T1, CaMKII (Rattus norvegicus, UniProt P11275).
T1 construct: purchased New England Biolabs
T1 sequence (P11275 1-325 limits assumed): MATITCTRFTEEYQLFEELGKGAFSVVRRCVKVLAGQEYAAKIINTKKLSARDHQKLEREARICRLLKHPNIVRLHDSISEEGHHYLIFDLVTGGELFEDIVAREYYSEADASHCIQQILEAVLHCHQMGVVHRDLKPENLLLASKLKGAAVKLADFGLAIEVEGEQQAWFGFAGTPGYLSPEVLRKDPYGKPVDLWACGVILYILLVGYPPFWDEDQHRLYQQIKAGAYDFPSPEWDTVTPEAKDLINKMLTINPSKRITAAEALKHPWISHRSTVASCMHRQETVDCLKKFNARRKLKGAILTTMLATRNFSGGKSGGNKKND
The assay can be described thus: Reconstituted enzyme assay, CaMKII. It counts as biochemical. The following applies: Table 6; read-out: Inhibition CAMKII. How it is done: (§1) [table] […] The rationale for using BV-2 cells in high throughput screening was the paucity of well-characterized human microglial cell lines, and the relevant activation responses and signaling pathways reflect those seen in human and rodent primary microglial cultures. Compounds were tested for their effects on NO accumulation in conditioned media of LPS-stimulated BV-2 cells by measurement of nitrite production by the Griess assay as a read-out for iNOS activity, as described previously. Stock solutions of compounds were prepared in dimethylsulfoxide (DMSO) or in water. When stock solutions were prepared in DMSO, control wells contained the same final concentration of DMSO as the compound-containing wells. […] Solutions of compounds for cell treatments were diluted to a 10× final concentration by dilution of stock solutions in αMEM media. […] Reconstituted enzyme assays were done as described s. The sources of protein kinases were: bovine heart PKA from Promega, rat brain PKC from Calbiochem, rat CaMKII from New England Biolabs, chicken gizzard MLCK prepared as described, and a p38 MAP kinase kit containing recombinant Xenopus p38-MAPK and its human substrate from Upstate Biotechnology. The catalytic domains of these protein kinases retain a high level of amino acid sequence identity across mammalian species, consistent with the lack of documented major differences across species for the in vitro catalytic activity of a given kinase.

The target of assay [2] is T2, myosin light chain kinase (MLCK) (Gallus gallus, UniProt P11799).
T2 construct: chicken gizzard MLCK prepared as described; from tissue; host or cells: chicken gizzard
T2 sequence (P11799 935-1906): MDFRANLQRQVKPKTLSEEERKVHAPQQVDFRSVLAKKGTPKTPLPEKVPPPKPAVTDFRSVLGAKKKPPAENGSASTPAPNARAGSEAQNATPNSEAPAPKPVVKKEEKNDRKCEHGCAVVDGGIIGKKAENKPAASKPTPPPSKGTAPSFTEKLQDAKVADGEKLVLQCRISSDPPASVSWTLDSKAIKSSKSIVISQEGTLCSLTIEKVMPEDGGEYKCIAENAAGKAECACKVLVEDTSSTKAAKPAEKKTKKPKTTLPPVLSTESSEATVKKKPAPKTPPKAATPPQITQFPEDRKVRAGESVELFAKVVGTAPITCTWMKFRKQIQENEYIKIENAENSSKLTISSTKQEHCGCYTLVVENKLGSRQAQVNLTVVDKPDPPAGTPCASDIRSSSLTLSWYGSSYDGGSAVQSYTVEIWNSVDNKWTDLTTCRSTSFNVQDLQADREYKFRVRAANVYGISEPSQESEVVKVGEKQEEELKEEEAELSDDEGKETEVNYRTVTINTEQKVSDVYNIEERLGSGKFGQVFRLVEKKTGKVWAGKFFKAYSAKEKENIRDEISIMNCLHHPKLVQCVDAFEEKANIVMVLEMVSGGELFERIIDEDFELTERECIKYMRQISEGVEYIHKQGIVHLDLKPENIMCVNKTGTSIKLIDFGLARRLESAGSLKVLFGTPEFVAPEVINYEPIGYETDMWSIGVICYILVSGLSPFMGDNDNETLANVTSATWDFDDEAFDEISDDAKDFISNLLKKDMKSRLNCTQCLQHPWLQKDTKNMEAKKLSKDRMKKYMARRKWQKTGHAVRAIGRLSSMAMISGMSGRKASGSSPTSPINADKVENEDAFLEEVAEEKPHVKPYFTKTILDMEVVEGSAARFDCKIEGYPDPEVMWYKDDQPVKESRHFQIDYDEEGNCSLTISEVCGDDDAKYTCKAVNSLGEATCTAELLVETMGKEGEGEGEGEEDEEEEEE
The assay is described as follows: Reconstituted enzyme assay, MLCK. It counts as biochemical, chicken. The following applies: Table 6; read-out: Inhibition MLCK. How it is done:
as §1

Here are results for 14 compounds from patent publication US7888357B2, “Anti-inflammatory and protein kinase inhibitor compositions and related methods for downregulation of detrimental cellular responses and inhibition of cell death” (Northwestern University, priority 2001, dated 2011).

Some results are limits rather than exact numbers.

Sequence of death associated protein kinase (DAPK) (P53355 whole entry, species assumed): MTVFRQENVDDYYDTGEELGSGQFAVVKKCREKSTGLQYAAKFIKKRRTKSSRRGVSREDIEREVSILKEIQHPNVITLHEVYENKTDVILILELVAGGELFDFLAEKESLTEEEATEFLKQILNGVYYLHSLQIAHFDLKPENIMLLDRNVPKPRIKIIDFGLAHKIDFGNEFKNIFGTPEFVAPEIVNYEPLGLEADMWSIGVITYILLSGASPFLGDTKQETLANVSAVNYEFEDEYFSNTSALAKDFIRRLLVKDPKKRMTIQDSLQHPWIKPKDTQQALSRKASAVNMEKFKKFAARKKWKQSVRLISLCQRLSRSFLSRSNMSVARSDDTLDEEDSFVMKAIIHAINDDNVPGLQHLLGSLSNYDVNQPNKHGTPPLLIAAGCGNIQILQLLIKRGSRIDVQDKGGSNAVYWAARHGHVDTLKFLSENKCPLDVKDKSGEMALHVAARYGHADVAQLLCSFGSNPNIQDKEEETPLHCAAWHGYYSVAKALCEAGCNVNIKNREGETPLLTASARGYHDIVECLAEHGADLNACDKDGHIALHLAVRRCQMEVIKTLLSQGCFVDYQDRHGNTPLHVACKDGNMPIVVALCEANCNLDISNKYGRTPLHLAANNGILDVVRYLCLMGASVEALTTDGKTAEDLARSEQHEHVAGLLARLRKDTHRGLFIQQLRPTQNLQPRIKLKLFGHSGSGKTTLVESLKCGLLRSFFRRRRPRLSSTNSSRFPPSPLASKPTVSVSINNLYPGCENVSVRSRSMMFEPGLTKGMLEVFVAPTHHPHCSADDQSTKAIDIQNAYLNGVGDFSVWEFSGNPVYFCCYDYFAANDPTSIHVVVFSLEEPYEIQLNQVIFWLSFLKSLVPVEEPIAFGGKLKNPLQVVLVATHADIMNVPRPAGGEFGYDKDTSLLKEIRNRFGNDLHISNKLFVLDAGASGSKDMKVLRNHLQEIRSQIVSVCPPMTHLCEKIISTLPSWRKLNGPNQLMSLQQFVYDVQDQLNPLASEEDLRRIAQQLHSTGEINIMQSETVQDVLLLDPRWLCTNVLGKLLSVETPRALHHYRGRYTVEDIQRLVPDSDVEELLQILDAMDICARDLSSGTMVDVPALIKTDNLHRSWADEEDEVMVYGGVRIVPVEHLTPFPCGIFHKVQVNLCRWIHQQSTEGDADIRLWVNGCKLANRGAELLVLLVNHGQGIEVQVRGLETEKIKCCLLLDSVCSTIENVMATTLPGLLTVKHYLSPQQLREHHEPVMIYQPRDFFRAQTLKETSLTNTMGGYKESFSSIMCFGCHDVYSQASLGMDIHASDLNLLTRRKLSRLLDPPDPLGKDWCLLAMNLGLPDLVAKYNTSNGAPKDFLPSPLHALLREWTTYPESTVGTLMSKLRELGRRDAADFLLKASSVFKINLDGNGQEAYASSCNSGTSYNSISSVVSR

`Cc1ccn(CCCCCCCCCCC(=O)N2CCN(c3ncccn3)CC2)c(=N)c1` [MW01-196-AS]: in the assay on BV-2 microglial cells, the “inhibition of NO accumulation by activated glia” value (shortened to “inhibition of NO accumulation”) is “little activity”. In the assay with rat astrocytes, the IL-1β production result is recorded as “does not show dose dependent inhibition” and the iNOS production result was “does not show dose dependent inhibition”. Regarding `COc1cccc(-c2cc(=O)c3ccccc3o2)c1N` [Compound 8, PD98059, reference compound], the “inhibition of NO accumulation” value in the assay on BV-2 microglial cells is on record as “less effective”. On to `Cc1cc(NC(=O)CCCCCCCCCCn2nc3c(cc2=N)CCc2ccccc2-3)nnc1-c1ccccc1` [MW01-008B], for which the IC50 in assay [1] is 50 to 100 µM; at CaMKII, 50 to 100 µM; in assay [2] it was below 20 µM. As to `O=C(CCCCCCCCCNc1ccc(-c2ccccc2)nn1)Nc1ccc(-c2ccccc2)nn1` [MW01-038B], the IC50 in assay [1] and in assay [2] was above 100 µM throughout. On to `N=c1cc2c(nn1CCCCCCCCCCC(=O)Nc1nnc(-c3ccccc3)c3ccccc13)-c1ccccc1CC2` [MW01-119Z], for which the “inhibition of NO accumulation” value in the assay with BV-2 microglial cells is “better efficacy than established anti-inflammatory compounds like SB203580”. With `N=c1cc2c(nn1CCCCCCCC(=O)N1CCN(c3ncccn3)CC1)-c1ccccc1CC2` [MW01-051Z], the “inhibition of NO accumulation” value in the assay on BV-2 microglial cells is reported as “significant NO inhibition activity”. `O=C(CCCCCCCCCCN1CCN(c2ncccn2)CC1)N1CCN(c2ncccn2)CC1` [MW01-024Z]: the “inhibition of NO accumulation” value in the assay on BV-2 microglial cells was “does not have any greater cellular activity than commercially available drugs and inhibitors”.

Turning to `Cc1cc(=N)n(CCCCCCCCCCC(=O)Nc2ccc(-c3ccccc3)nn2)nc1-c1ccccc1` [MW01-103B], the results for the IC50 (in assay [1]; on CaMKII; in assay [2]) were 50 to 100 µM, above 100 µM and 20 to 50 µM, respectively. As to `N=c1cc2c(nn1CCCCCCCC(=O)Nc1ccc(-c3ccccc3)nn1)-c1ccccc1CC2` [MW01-097B], the IC50 is above 100 µM in assay [1], above 100 µM on CaMKII and 20 to 50 µM in assay [2]. As for `N#CC(=C(/N)Sc1ccccc1N)/C(C#N)=C(\N)Sc1ccccc1N` [Compound 9, U0126, reference compound], the “inhibition of NO accumulation” value in the assay on BV-2 microglial cells is “less effective”. `N=c1cc2c(nn1CCCCC(=O)N1CCN(c3ncccn3)CC1)-c1ccccc1CC2` [MW01-160Z]: the “inhibition of NO accumulation” value with BV-2 microglial cells was “no more active than inhibitors of the NFκB pathway (PDTC)”.

On to `Cc1ccc(NC(=O)CCCCCCCCCCn2nc3c(cc2=N)CCc2ccccc2-3)nn1` [MW01-020B], for which the IC50 (in assay [1]; on CaMKII; in assay [2]) was above 100 µM in each case.

For the compound `N=c1ccc(-c2ccccc2)nn1CCCCCCCC(=O)Nc1ccc(-c2ccccc2)nn1` [MW01-086B], the IC50 in assay [1] and in assay [2] was above 100 µM each time. In the case of `C[S+]([O-])c1ccc(-c2nc(-c3ccncc3)c(-c3ccc(F)cc3)[nH]2)cc1` (centres unmarked) [Compound 7, SB203580, reference compound], the “inhibition of NO accumulation” value in the assay with BV-2 microglial cells was “less effective”.
